{
  "source": "patent US20070015823A1",
  "about": "“Ambruticin VS compounds” (priority 2004, published 2007)",
  "key": {"Candida parapsilosis [1]": {"test_system": "Candida parapsilosis", "details": "strain 92019; 95% growth inhibition"}, "A. fumigatus ATCC 204305": {"test_system": "A. fumigatus ATCC 204305", "experiment": "Broth microdilution antifungal susceptibility, NCCLS M38-A", "assay_type": "cell-based, Aspergillus fumigatus"}, "C. immitis": {"test_system": "C. immitis", "experiment": "microbe, parasite or virus in culture", "assay_type": "cell-based, Coccidioides immitis", "details": "80% growth inhibition"}, "S. apiospermum": {"test_system": "S. apiospermum", "experiment": "Broth microdilution antifungal susceptibility, NCCLS M38-A", "assay_type": "cell-based, Scedosporium apiospermum", "details": "for MIC: Scedosporium apiospermum"}, "A. flavus ATCC 204304": {"test_system": "A. flavus ATCC 204304", "experiment": "Broth microdilution antifungal susceptibility, NCCLS M38-A", "assay_type": "cell-based, Aspergillus flavus"}, "Fusarium solani": {"test_system": "Fusarium solani", "experiment": "Broth microdilution antifungal susceptibility, NCCLS M38-A", "assay_type": "cell-based"}, "Cryptococcus neoformans": {"test_system": "Cryptococcus neoformans", "experiment": "Broth microdilution antifungal susceptibility, NCCLS M38-A", "details": "for MIC: Cryptococcus neoformans"}, "Blastomyces dermatitidis": {"test_system": "Blastomyces dermatitidis", "experiment": "Broth microdilution antifungal susceptibility, NCCLS M38-A", "assay_type": "cell-based", "details": "for MIC: Blastomyces dermatitidis"}, "Histoplasma capsulatum": {"test_system": "Histoplasma capsulatum", "assay_type": "cell-based", "details": "50% growth inhibition"}, "C. posadasii": {"test_system": "C. posadasii", "experiment": "microbe, parasite or virus in culture", "assay_type": "cell-based, Coccidioides posadasii", "details": "80% growth inhibition"}, "Candida parapsilosis [2]": {"test_system": "Candida parapsilosis", "experiment": "microbe, parasite or virus in culture", "details": "Lodderomyces parapsilosis, read-out: MIC0 C. parapsilosis 92019"}, "[3]": {"details": "minimal concentration inhibiting >95% growth, average of at least two assays (except I-l and I-x)"}},
  "note": "Where two headings read alike, the source gives them in different places.",
  "data": [
    {"smiles": "C[C@@H]1[C@H](O)[C@@H](C)/C=C/C=C/C=C/C=C/C=C/C=C/C=C/[C@H](O[C@@H]2O[C@H](C)[C@@H](O)[C@H](N)[C@@H]2O)C[C@@H]2O[C@](O)(C[C@@H](O)C[C@@H](O)[C@H](O)CC[C@@H](O)C[C@@H](O)CC(=O)O[C@H]1C)C[C@H](O)[C@H]2C(=O)O", "note": "[Amphotericin B, reference compound]", "values": [
      {"measurement": "MIC0 C. parapsilosis 92019", "setting": "Candida parapsilosis [1]", "value": 1, "unit": "µg/mL"},
      {"measurement": "MIC0 A. fumigatus ATCC 204305", "setting": "A. fumigatus ATCC 204305; [3]", "value": 1.53, "unit": "µg/mL"},
      {"measurement": "MIC C. immitis RMS 2281", "setting": "C. immitis; strain RMS 2281", "value": 1, "unit": "µg/mL"},
      {"measurement": "MIC C. immitis RS", "setting": "C. immitis; strain RS", "value": 1, "unit": "µg/mL"},
      {"measurement": "MIC C. immitis S46", "setting": "C. immitis; strain S46", "value": 1, "unit": "µg/mL"},
      {"measurement": "MIC S. apiospermum 94-54", "setting": "S. apiospermum; strain 94-54, 50% growth inhibition, range = minimum and maximum of multiple assays", "value": ">32", "unit": "µg/mL"},
      {"measurement": "MIC S. apiospermum 98-38", "setting": "S. apiospermum; strain 98-38, 50% growth inhibition, range = minimum and maximum of multiple assays", "value": 4, "unit": "µg/mL"},
      {"measurement": "MIC S. apiospermum 98-89", "setting": "S. apiospermum; strain 98-89, 50% growth inhibition, range = minimum and maximum of multiple assays", "value": 8, "unit": "µg/mL"},
      {"measurement": "MIC0 A. flavus ATCC 204304", "setting": "A. flavus ATCC 204304; [3]", "value": 1.67, "unit": "µg/mL"},
      {"measurement": "MIC F. solani 96-1", "setting": "Fusarium solani; strain 96-1, 50% growth inhibition, range = minimum and maximum of multiple assays", "value": "1 to 2", "unit": "µg/mL"},
      {"measurement": "MIC C. neoformans 97-14", "setting": "Cryptococcus neoformans; strain 97-14, 50% growth inhibition, range = minimum and maximum of multiple assays", "value": "0.5 to 2", "unit": "µg/mL"},
      {"measurement": "MIC C. neoformans 11239", "setting": "Cryptococcus neoformans; strain 11239, 50% growth inhibition, range = minimum and maximum of multiple assays", "value": "0.5 to 1", "unit": "µg/mL"},
      {"measurement": "MIC C. neoformans 11240", "setting": "Cryptococcus neoformans; strain 11240, 50% growth inhibition, range = minimum and maximum of multiple assays", "value": "0.5 to 1", "unit": "µg/mL"},
      {"measurement": "MIC C. albicans 24433", "setting": "Candida albicans; strain 24433, 50% growth inhibition, range = minimum and maximum of multiple assays", "value": "2 to 4", "unit": "µg/mL"},
      {"measurement": "MIC C. albicans 90028", "setting": "Candida albicans; strain 90028, 50% growth inhibition, range = minimum and maximum of multiple assays", "value": "2 to 4", "unit": "µg/mL"},
      {"measurement": "MIC0 C. albicans 90028", "setting": "Candida albicans; strain 90028, 95% growth inhibition", "value": 1, "unit": "µg/mL"},
      {"measurement": "MIC B. dermatitidis Gu", "setting": "Blastomyces dermatitidis; strain Gu, 50% growth inhibition", "value": 2, "unit": "µg/mL"},
      {"measurement": "MIC B. dermatitidis Kr", "setting": "Blastomyces dermatitidis; strain Kr, 50% growth inhibition", "value": 1, "unit": "µg/mL"},
      {"measurement": "MIC B. dermatitidis V", "setting": "Blastomyces dermatitidis; strain V, 50% growth inhibition", "value": 1, "unit": "µg/mL"},
      {"measurement": "MIC0 C. krusei 6258", "setting": "Candida krusei; strain 6258, 95% growth inhibition", "value": 1, "unit": "µg/mL"},
      {"measurement": "MIC H. capsulatum G217B", "setting": "Histoplasma capsulatum; strain G217B", "value": 0.19, "unit": "µg/mL"},
      {"measurement": "MIC H. capsulatum GS20", "setting": "Histoplasma capsulatum; strain GS20", "value": 0.19, "unit": "µg/mL"},
      {"measurement": "MIC C. posadasii C735", "setting": "C. posadasii; strain C735", "value": 1, "unit": "µg/mL"},
      {"measurement": "MIC C. posadasii RMSCC 2127", "setting": "C. posadasii; strain RMSCC 2127", "value": 1, "unit": "µg/mL"},
      {"measurement": "MIC C. posadasii Silveria", "setting": "C. posadasii; strain Silveria", "value": 1, "unit": "µg/mL"}
    ]},
    {"smiles": "CCC(C)n1ncn(-c2ccc(N3CCN(c4ccc(OCC5COC(Cn6cncn6)(c6ccc(Cl)cc6Cl)O5)cc4)CC3)cc2)c1=O", "note": "(stereo not drawn) [Itraconazole, reference compound]", "values": [
      {"measurement": "MIC", "setting": "A. fumigatus ATCC 204305; Aspergillus fumigatus, ATCC204305, read-out: MIC0 A. fumigatus ATCC 204305", "value": 0.58, "unit": "µg/mL"},
      {"measurement": "MIC", "setting": "S. apiospermum; read-out: MIC S. apiospermum 98-38", "value": "1 to 4", "unit": "µg/mL"},
      {"measurement": "MIC", "setting": "S. apiospermum; read-out: MIC S. apiospermum 98-89", "value": "1 to 2", "unit": "µg/mL"},
      {"measurement": "MIC", "setting": "A. flavus ATCC 204304; Aspergillus flavus, ATCC204304, read-out: MIC0 A. flavus ATCC 204304", "value": 0.47, "unit": "µg/mL"},
      {"measurement": "MIC", "setting": "Fusarium solani; Fusarium solani, read-out: MIC F. solani 96-1", "value": "> 4", "unit": "µg/mL"},
      {"measurement": "MIC", "setting": "Cryptococcus neoformans; read-out: MIC C. neoformans 97-14", "value": 0.125, "unit": "µg/mL"},
      {"measurement": "MIC", "setting": "Cryptococcus neoformans; read-out: MIC C. neoformans 11239", "value": 0.031, "unit": "µg/mL"},
      {"measurement": "MIC", "setting": "Cryptococcus neoformans; read-out: MIC C. neoformans 11240", "value": 0.313, "unit": "µg/mL"},
      {"measurement": "MIC", "setting": "Candida albicans; Candida albicans, read-out: MIC0 C. albicans 90028", "value": 0.25, "unit": "µg/mL"},
      {"measurement": "MIC", "setting": "Blastomyces dermatitidis; read-out: MIC0 Blastomyces dermatitidis 04-2167", "value": 0.03, "unit": "µg/mL"},
      {"measurement": "MIC", "setting": "Blastomyces dermatitidis; read-out: MIC0 Blastomyces dermatitidis 04-2508", "value": 0.03, "unit": "µg/mL"},
      {"measurement": "MIC", "setting": "Blastomyces dermatitidis; read-out: MIC0 Blastomyces dermatitidis 04-2915", "value": 0.06, "unit": "µg/mL"},
      {"measurement": "MIC", "setting": "Blastomyces dermatitidis; read-out: MIC0 Blastomyces dermatitidis 05-106", "value": 0.06, "unit": "µg/mL"},
      {"measurement": "MIC", "setting": "Blastomyces dermatitidis; read-out: MIC0 Blastomyces dermatitidis 05-186", "value": 0.06, "unit": "µg/mL"},
      {"measurement": "MIC", "setting": "Blastomyces dermatitidis; read-out: MIC0 Blastomyces dermatitidis 05-1391", "value": 0.03, "unit": "µg/mL"},
      {"measurement": "MIC", "setting": "Blastomyces dermatitidis; read-out: MIC0 Blastomyces dermatitidis 05-1707", "value": "≤ 0.015", "unit": "µg/mL"},
      {"measurement": "MIC", "setting": "Blastomyces dermatitidis; read-out: MIC0 Blastomyces dermatitidis 05-1820", "value": "≤ 0.015", "unit": "µg/mL"},
      {"measurement": "MIC", "setting": "Blastomyces dermatitidis; read-out: MIC0 Blastomyces dermatitidis 05-1829", "value": 0.06, "unit": "µg/mL"},
      {"measurement": "MIC", "setting": "Blastomyces dermatitidis; read-out: MIC0 Blastomyces dermatitidis 05-2020", "value": "≤ 0.015", "unit": "µg/mL"},
      {"measurement": "MIC", "setting": "Blastomyces dermatitidis; read-out: MIC0 Blastomyces dermatitidis R-3529", "value": "≤ 0.015", "unit": "µg/mL"},
      {"measurement": "MIC", "setting": "Blastomyces dermatitidis; read-out: MIC0 Blastomyces dermatitidis R-35629", "value": "≤ 0.015", "unit": "µg/mL"},
      {"measurement": "MIC", "setting": "Candida krusei; Pichia kudriavzevii, read-out: MIC0 C. krusei 6258", "value": 0.25, "unit": "µg/mL"},
      {"measurement": "MIC", "setting": "Candida parapsilosis [2]", "value": 0.25, "unit": "µg/mL"}
    ]}
  ]
}
